Assay [1] deals with herpes zoster. As to the kind of experiment: Treatment of herpes zoster in patients, case report and general statement. In kind it is in vivo. The following applies: case 5, herpes zoster around right eye. From the text: The average total period of treatment with the present invention is from about 2-4 days for herpes simplex and from about 3-7 days for herpes zoster. After the acute stage, crusts of the lesion form and fall off gradually, and then a red spot or spots remain for some more days. […] […] For quicker relief, the patient preferred to take the formula of the present invention along with acyclovir.

Assay [2] has as its system herpes simplex. Briefly: Treatment and prevention of herpes simplex (lips, mouth) in patients, case reports and general statements. In kind it is in vivo. The following applies: large dosage (200-500 mg), applicant's experience. As to the method: The treatment regimen of the present invention comprises: Initially, administering to the patient 2 capsules (or tablets, the same hereinafter) of said formula orally every 2-4 hours. The dosage may be higher in severe cases, and may be adjusted by the prescribing health care provider. When symptoms are alleviated (see description below), usually after 1-2 days, administer 1 capsule of said formula every 4 hours until symptoms disappear. The average total period of treatment with the present invention is from about 2-4 days for herpes simplex and from about 3-7 days for herpes zoster. After the acute stage, crusts of the lesion form and fall off gradually, and then a red spot or spots remain for some more days. The formula of the present invention can be used for therapeutic prevention of herpes simplex: Whenever the patient feels a stinging and burning sensation on the potential site, or feels roughness on the tip of the tongue, they can ingest 1-2 capsules of the formula, and repeat every 2-4 hours if necessary. […] After several such preventive measures, recurrence of herpes simplex will be less and less likely, or latent for a sustained period. […] Patient stated that they had had recurrent maceration in the angles of the mouth since childhood. […]

Structures are written as SMILES.

From US7862838B1, “Composition and regimen for the treatment of herpes simplex and herpes zoster primarily by eliminating their pathogenetic conditions and taking into account both pathogenesis and etiology” (priority 2009, dated 2011) come the findings set out here.

`CC(C)Cc1ccc(C(C)C(=O)O)cc1` (stereo not drawn) [Ibuprofen]: the “pain relief before treatment with the formula” value in assay [1] is listed as “effective only for a short time”.

For the molecule `Nc1nc2c(ncn2COCCO)c(=O)[nH]1` [acyclovir], the “pain relief before treatment with the formula” value in assay [1] was “got some relief”.

Consider `O=C1O[C@H]([C@@H](O)CO)C(O)=C1O` [vitamin C], for which the “effect on the course of herpes simplex” value in assay [2] is on record as “made herpes simplex worse”.
